Reference: patent US7842684B2, “Diphenylazetidinone derivatives possessing cholesterol absorption inhibitor activity” (AstraZeneca AB, priority 2006, dated 2010)

What was measured:
[1] = Absorption in a Caco-2 cells model; assay type: in vitro ADME; conditions: human
Method: Absorption of the compounds of formula (I) was tested in a Caco-2 cells model (Gastroenterology 1989, 96, 736): […]

[2] = tested on: 14C-cholesterol absorption; assay: In Vivo Testing of Cholesterol Absorption Inhibitors (A); conditions: 0.2 μmol/kg by gavage, procedure A, C57BL/6 female mice
Method: In Vivo Testing of Cholesterol Absorption Inhibitors (A)
C57BL/6 female mice were maintained on regular chow diet and housed in individual cages to collect faeces. Mice were fasted for 3 hours and then gavaged with vehicle or compound. Half an hour later the mice were gavaged with radiolabelled cholesterol. Six hours after the ^14C-cholesterol gavage blood samples were taken via the tail and plasma prepared to determine how much cholesterol were absorbed. 24 hours after the gavage of ^14C-cholesterol the mice were bled and plasma were prepared for analysis. Faeces were collected for 24 hours to assess absorption efficiency.

| Papp [1] [×10⁻⁶ cm/s] | SMILES | inhibition of 14C-cholesterol absorption [2] [%] |
| --- | --- | --- |
| 0.04 | CS(=O)(=O)NCC#Cc1ccc(N2C(=O)[C@H](SC[C@H](O)c3ccc(F)cc3)[C@H]2c2ccc(OCC(=O)NCC(=O)N[C@H](CC3CCCCC3)C(=O)O)cc2)cc1 [Example 1, N-({4-[(2R,3R)-3-{[(2R)-2-(4-fluorophenyl)-2-hydroxyethyl]thio}-1-(4-{3-[(methylsulfonyl)amino]prop-1-yn-1-yl}phenyl)-4-oxoazetidin-2-yl]phenoxy}acetyl)glycyl-3-cyclohexyl-D-alanine] | – |
| 0.02 | CC(C)[C@@H](NC(=O)CNC(=O)COc1ccc([C@@H]2[C@@H](SC[C@H](O)c3ccc(F)cc3)C(=O)N2c2ccc(C#CCNS(C)(=O)=O)cc2)cc1)C(=O)O [Example 2, N-({4-[(2R,3R)-3-{[(2R)-2-(4-fluorophenyl)-2-hydroxyethyl]thio}-1-(4-{3-[(methylsulfonyl)amino]prop-1-yn-1-yl}phenyl)-4-oxoazetidin-2-yl]phenoxy}acetyl)glycyl-D-valine] | – |
| – | CS(=O)(=O)NCC#Cc1ccc(N2C(=O)[C@H](SC[C@H](O)c3ccc(F)cc3)[C@H]2c2ccc(OCC(=O)NCC(=O)O)cc2)cc1 [Example 6, N-({4-[(2R,3R)-3-{[(2R)-2-(4-fluorophenyl)-2-hydroxyethyl]thio}-1-(4-{3-[(methylsulfonyl)amino]prop-1-yn-1-yl}phenyl)-4-oxoazetidin-2-yl]phenoxy}acetyl)glycine] | 90 |
